Test results: ChEMBL document CHEMBL5143655, “Synthesis and biological evaluation of 1,2,4-triazole derivatives as potential Nrf2 activators for the treatment of cerebral ischemic injury” (Eur J Med Chem, 2022)

Assays:
[1] = test system: PC-12; assay: Neuroprotective activity against SNP induced rat PC-12 cells assessed as increase in cell viability at 5 uM preincubated for 2 hrs followed by SNP stimulation for 24 hrs by MTT assay relative to control; type: functional
[2] = Cytotoxicity against rat PC-12 cells assessed as reduction in cell viability by MTT assay; type: toxicity, cell-based
[3] = Cytotoxicity against human HaCaT cells assessed as reduction in cell viability by MTT assay; type: toxicity, cell-based
[4] = test system: PC-12; assay: Neuroprotective activity against SNP induced rat PC-12 cells assessed as increase in cell viability at 10 uM preincubated for 2 hrs followed by SNP stimulation for 24 hrs by MTT assay relative to control; type: functional
[5] = test system: PC-12; assay: Neuroprotective activity against SNP induced rat PC-12 cells assessed as increase in cell viability at 1 uM preincubated for 2 hrs followed by SNP stimulation for 24 hrs by MTT assay relative to control; type: functional
[6] = Metabolic stability in human plasma assessed as parent compound remaining at 200 uM measured after 120 min by LC-MS/MS analysis relative to control; type: ADME, cell-free; details: read-out: Stability
[7] = Metabolic stability in human plasma assessed as parent compound remaining at 200 uM measured after 15 min by LC-MS/MS analysis relative to control; type: ADME, cell-free; details: read-out: Stability
[8] = Metabolic stability in human plasma assessed as parent compound remaining at 200 uM measured after 90 min by LC-MS/MS analysis relative to control; type: ADME, cell-free; details: read-out: Stability
[9] = Metabolic stability in human plasma assessed as half life at 200 uM by LC-MS/MS analysis relative to control; type: ADME, cell-free
[10] = Metabolic stability in human plasma assessed as parent compound remaining at 200 uM measured after 60 min by LC-MS/MS analysis relative to control; type: ADME, cell-free; details: read-out: Stability
[11] = test system: Rattus norvegicus; assay: Neuroprotective activity in Sprague-Dawley rat model of middle cerebral artery occlusion-induced ischemia-reperfusion injury assessed as decrease in cerebral infarct volume at 5 mg/kg, ip preincubated for 1 hrs followed by MCAO operation and further incubated with compound for 4 hrs after reperfusion by TTC staining based assay; type: functional; set-up: scale not given: the % may be the effect or the level left; details: time 5 hrs
[12] = Plasma protein binding in Sprague-Dawley rat plasma at 10 uM incubated for 6 hrs by LC-MS/MS based equilibrium dialysis method; type: ADME, cell-free; details: read-out: PPB (converted)
[13] = Plasma protein binding in human plasma at 10 uM incubated for 6 hrs by LC-MS/MS based equilibrium dialysis method; type: ADME, cell-free; details: read-out: PPB (converted)

Compound | Activity [1] [%] | IC50 [2] [µM] | IC50 [3] [µM] | Activity [4] [%] | Activity [5] [%] | also measured
COc1cccc(-n2nc(-c3ccc(C(F)(F)F)cc3O)nc2-c2ccccc2O)c1 | 96.76 | 56.4 | 81.1 | 105.81 | 68.27 | 
Oc1cc(C(F)(F)F)ccc1-c1nc(-c2ccccc2O)n(-c2cccc(Cl)c2)n1 | 92.73 |  |  | 100.29 | 72.33 | 
CC(C)c1ccc(-n2nc(-c3ccc(C(F)(F)F)cc3O)nc2-c2ccccc2O)cc1 | 100.41 | 144 | 51.4 | 108 | 69.66 | 
Oc1cc(C(F)(F)F)ccc1-c1nc(-c2ccccc2O)n(-c2cccc(F)c2)n1 | 87.66 |  |  | 98.25 | 67.24 | 
CC(C)[N+](C)(CCOC(=O)C1c2ccccc2Oc2ccccc21)C(C)C [PROPANTHELINE] |  |  |  |  |  | remaining at 2 h, 200 µM [6]: 2.41%; remaining at 0.25 h, 200 µM [7]: 63.4%; remaining at 1.5 h, 200 µM [8]: 17.3%; half-life at 200 µM [9]: 23.5 min; remaining at 1 h, 200 µM [10]: 34.5%
Oc1cc(C(F)(F)F)ccc1-c1nc(-c2ccccc2O)n(-c2ccccc2F)n1 | 86.63 |  |  | 100.18 | 63.42 | 
Oc1cc(C(F)(F)F)ccc1-c1nc(-c2ccccc2O)n(-c2ccc(C(F)(F)F)cc2)n1 | 90.51 |  |  | 101.67 | 70.66 | 
Oc1cc(C(F)(F)F)ccc1-c1nc(-c2ccccc2O)n(-c2ccc(Cl)cc2)n1 | 87.25 |  |  | 96.09 | 67.99 | 
Oc1cc(C(F)(F)F)ccc1-c1nc(-c2ccccc2O)n(-c2ccc(Cl)cc2Cl)n1 | 86.73 |  |  | 95.21 | 68.99 | 
Oc1cc(C(F)(F)F)ccc1-c1nc(-c2ccccc2O)n(-c2cccc(C(F)(F)F)c2)n1 | 92.2 | 49.7 | 54.3 | 99.9 | 71.47 | 
N#Cc1ccc(-n2nc(-c3ccc(C(F)(F)F)cc3O)nc2-c2ccccc2O)cc1 | 86.8 |  |  | 98.91 | 66.6 | 
CCc1ccc(-n2nc(-c3ccc(C(F)(F)F)cc3O)nc2-c2ccccc2O)cc1 | 95.36 | 147 | 57 | 106.61 | 64.43 | 
Oc1cc(C(F)(F)F)ccc1-c1nc(-c2ccccc2O)n(-c2ccc(F)cc2)n1 | 86.71 |  |  | 99.83 | 67.16 | 
Oc1cc(C(F)(F)F)ccc1-c1nc(-c2ccccc2O)n(-c2ccc(Br)cc2)n1 | 89.76 | 66.8 | 29.6 | 100.49 | 69.35 | 
CC(C)(C)c1ccc(-n2nc(-c3ccc(C(F)(F)F)cc3O)nc2-c2ccccc2O)cc1 | 77.77 |  |  | 81.14 | 67.29 | 
COc1ccccc1-n1nc(-c2ccc(C(F)(F)F)cc2O)nc1-c1ccccc1O | 85.59 |  |  | 96.2 | 70.74 | 
CC1=NN(c2ccccc2)C(=O)C1 [EDARAVONE] | 70.3 |  |  | 80.25 | 58.41 | Activity [11]: 12.77%
Oc1cc(C(F)(F)F)ccc1-c1nc(-c2ccccc2O)n(-c2cc(F)cc(F)c2)n1 | 100.23 | 53.7 | 45.4 | 106.29 | 75.47 | 
Oc1ccccc1-c1nc(-c2ccc(C(F)(F)F)cc2)no1 | 81.39 |  |  | 84.7 | 75.88 | 
Cc1ccc(-n2nc(-c3ccc(C(F)(F)F)cc3O)nc2-c2ccccc2O)cc1 | 94.12 | 113 | 81.8 | 102.45 | 71.49 | 
Cc1ccc(-n2nc(-c3ccc(C(F)(F)F)cc3O)nc2-c2ccccc2O)c(C)c1 | 93.31 | 230 | 94.8 | 106.25 | 73.72 | 
CC(=O)N1CCN(c2ccc(OCC3COC(Cn4ccnc4)(c4ccc(Cl)cc4Cl)O3)cc2)CC1 (configuration not stated) [KETOCONAZOLE] |  |  |  |  |  | fraction unbound at 6 h, 10 µM [12]: 0.0032; fraction unbound at 6 h, 10 µM [13]: 0.0128
Oc1cc(C(F)(F)F)ccc1-c1nc(-c2ccccc2O)n(-c2ccc(OC(F)(F)F)cc2)n1 | 84.94 |  |  | 92.54 | 65.49 | 
Oc1cc(C(F)(F)F)ccc1-c1nc(-c2ccccc2O)n(-c2ccccc2Cl)n1 | 90.63 |  |  | 102.19 | 70.08 | 
Oc1cc(C(F)(F)F)ccc1-c1nc(-c2ccccc2O)n(-c2ccc(F)cc2F)n1 | 83.53 |  |  | 97.86 | 65.92 | 
Oc1cc(C(F)(F)F)ccc1-c1nc(-c2ccccc2O)n(-c2cc(C(F)(F)F)cc(C(F)(F)F)c2)n1 | 75.68 |  |  | 86.16 | 68.89 | 
Oc1cc(C(F)(F)F)ccc1-c1nc(-c2ccccc2O)n(-c2ccc(I)cc2)n1 | 94.41 | 73.3 | 32.1 | 104.51 | 70.13 | 
COc1ccc(-n2nc(-c3ccc(C(F)(F)F)cc3O)nc2-c2ccccc2O)cc1 | 86.56 |  |  | 98.85 | 69.04 | 
Oc1cc(C(F)(F)F)ccc1-c1nc(-c2ccccc2O)n(-c2ccccc2C(F)(F)F)n1 | 80.01 |  |  | 92.2 | 70.97 | 
